According to US20070128217A1 (priority 2003, published 2007):

Experiments:
[1] = tested on: antibodies in sera from SARS patients (sera 1a, 1b, 2, 6, 37, 62, London, SARS-yellow, SARS-green); format: binding, human; parameters: Binding of serum 6 to linear peptides of protein X1 of SARS-CoV Urbani / Binding of serum 37 to linear peptides of protein X1 of SARS-CoV Urbani / Binding of serum 6 to looped/cyclic peptide (PEPSCAN-ELISA) / Binding of serum 37 to looped/cyclic peptide (PEPSCAN-ELISA) / Binding of serum 37 to looped/cyclic peptides of protein X1 of SARS-CoV Urbani / Binding of serum 6 to linear peptides of protein X2 / Binding of serum 37 to linear peptides of protein X2 / Binding of serum 37 to looped/cyclic peptides of protein X2 of SARS-CoV Urbani / Binding of serum 6 to linear peptides of protein M of SARS-CoV Urbani / Binding of serum 37 to linear peptides of protein M of SARS-CoV Urbani / Binding of serum 6 to looped/cyclic peptides of protein M of SARS-CoV Urbani / Binding of serum 37 to looped/cyclic peptides of protein M of SARS-CoV Urbani / Binding of serum 6 to linear peptides of protein X3 of SARS-CoV Urbani / Binding of serum 37 to linear peptides of protein X3 of SARS-CoV Urbani / Binding of serum 37 to looped/cyclic peptides of protein X3 of SARS-CoV Urbani / Binding of serum 6 to linear peptides of protein X4 of SARS-CoV Urbani / Binding of serum 37 to linear peptides of protein X4 of SARS-CoV Urbani / Binding of serum 37 to looped/cyclic peptides of protein X4 of SARS-CoV Urbani / Binding of serum 6 to linear peptides of protein X5 of SARS-CoV Urbani / Binding of serum 37 to linear peptides of protein X5 of SARS-CoV Urbani / Binding of serum 37 to looped/cyclic peptides of protein X5 of SARS-CoV Urbani / Binding of serum 6 to linear peptides of protein N of SARS-CoV Urbani / Binding of serum 37 to linear peptides of protein N of SARS-CoV Urbani / Binding of serum 6 to linear peptide (PEPSCAN-ELISA) / Binding of serum 1a to looped/cyclic peptides of protein N of SARS-CoV Urbani / Binding of serum 1b to looped/cyclic peptides of protein N of SARS-CoV Urbani / Binding of serum 2 to looped/cyclic peptides of protein N of SARS-CoV Urbani / Binding of serum 6 to looped/cyclic peptides of protein N of SARS-CoV Urbani / Binding of serum 37 to looped/cyclic peptides of protein N of SARS-CoV Urbani / Binding of serum 62 to looped/cyclic peptides of protein N of SARS-CoV Urbani / Binding of serum London to looped/cyclic peptides of protein N of SARS-CoV Urbani / Binding of serum SARS-green to looped/cyclic peptides of protein N of SARS-CoV Urbani: unit not given here
[2] = tested on: control sera (pooled serum of ten healthy LUMC hospital workers; commercial negative donor pooled serum from the Dutch bloodbank); format: binding, human; parameters: Binding of Control serum LUMC to linear peptides / Binding of Control serum Blood-bank to linear peptides / Binding of Control serum LUMC to looped peptides / Binding of Control Serum Blood-Bank to Looped peptides / Binding of Control serum LUMC to linear peptides of the protein M of SARS-CoV Urbani / Binding of Control serum Blood-bank to linear peptides of the protein M of SARS-CoV Urbani / Binding of Control serum LUMC to looped peptides of the protein M of SARS-CoV Urbani / Binding of Control Serum Blood-Bank to Looped peptides of the protein M of SARS-CoV Urbani: unit not given here
[3] = tested on: rabbit serum obtained by immunizing a rabbit with the SARS-CoV strain Frankfurt 1; format: binding; parameters: Binding of a rabbit serum to linear peptides / Binding of a rabbit serum to looped peptides / Rabbit serum linear peptides / Rabbit serum looped peptides / Binding of a rabbit serum to linear peptides of protein N of SARS-CoV Urbani (Rabbit serum linear peptides) / Binding of a rabbit serum to looped/cyclic peptides of protein N of SARS-CoV Urbani (Rabbit serum looped peptides): unit not given here
[4] = tested on: recombinant human anti-SARS-CoV antibody 03-018; format: binding; parameters: Binding of antibody 03-018 to linear peptides of the N protein of SARS-CoV Urbani / Binding of antibody 03-018 to looped/cyclic peptides of the N protein of SARS-CoV Urbani: unit not given here

Sequence | Binding of serum 1a to linear peptide (PEPSCAN-ELISA) [1] | Binding of serum 1a to looped/cyclic peptides of protein N of SARS-CoV Urbani [1] | Binding of serum 1b to linear peptide (PEPSCAN-ELISA) [1] | Binding of serum 1b to looped/cyclic peptides of protein N of SARS-CoV Urbani [1] | Binding of serum 2 to linear peptide (PEPSCAN-ELISA) [1] | Binding of serum 2 to looped/cyclic peptides of protein N of SARS-CoV Urbani [1] | Binding of serum 6 to linear peptide (PEPSCAN-ELISA) [1] | Binding of serum 6 to looped/cyclic peptides of protein N of SARS-CoV Urbani [1] | Binding of serum 37 to linear peptide (PEPSCAN-ELISA) [1] | Binding of serum 37 to looped/cyclic peptides of protein N of SARS-CoV Urbani [1] | Binding of serum 62 to linear peptide (PEPSCAN-ELISA) [1] | Binding of serum 62 to looped/cyclic peptides of protein N of SARS-CoV Urbani [1] | Binding of serum London to linear peptide (PEPSCAN-ELISA) [1] | Binding of serum London to looped/cyclic peptides of protein N of SARS-CoV Urbani [1] | Binding of serum SARS-green to looped/cyclic peptides of protein N of SARS-CoV Urbani [1] | Binding of serum SARS-yellow to looped/cyclic peptides of protein N of SARS-CoV Urbani [1] | Binding of a rabbit serum to linear peptides of protein N of SARS-CoV Urbani (Rabbit serum linear peptides) [3] | Binding of a rabbit serum to looped/cyclic peptides of protein N of SARS-CoV Urbani (Rabbit serum looped peptides) [3] | Binding of antibody 03-018 to linear peptides of the N protein of SARS-CoV Urbani [4] | Binding of antibody 03-018 to looped/cyclic peptides of the N protein of SARS-CoV Urbani [4] | other results
NSRNSTPGSSRGNSP | 0.6 | 0.6 | 0.4 | 0.5 | 0.3 | 0.5 | 0.4 | 0.4 | 0.9 | 0.6 | 0.9 | 0.5 | 1.4 | 0.4 | 0.3 | 0.3 | 0.2 | 0.5 | 0.1 | 0.2 | Binding of serum SARS-green to linear peptide (PEPSCAN-ELISA) [1]: 0.4; Binding of serum SARS-yellow to linear peptide (PEPSCAN-ELISA) [1]: 1.0; Binding of Control Serum Blood-Bank to Looped peptides [2]: 0.7; Binding of Control serum Blood-bank to linear peptides [2]: 0.9; Binding of Control serum LUMC to linear peptides [2]: 0.7; Binding of Control serum LUMC to looped peptides [2]: 0.7
LLNKHIDAYKTFPPT |  | 0.3 |  | 0.1 |  | 0.3 |  | 0.2 |  | 0.4 |  | 0.3 |  | 0.3 | 0.3 | 0.4 | 0.2 | 0.4 | 0.1 | 0.2 | Binding of serum 1a to linear peptides of protein N of SARS-CoV Urbani [1]: 0.2; Binding of serum 1b to linear peptides of protein N of SARS-CoV Urbani [1]: 0.1; Binding of serum 2 to linear peptides of protein N of SARS-CoV Urbani [1]: 0.2; Binding of serum 6 to linear peptides of protein N of SARS-CoV Urbani [1]: 0.2; Binding of serum 37 to linear peptides of protein N of SARS-CoV Urbani [1]: 0.7; Binding of serum 62 to linear peptides of protein N of SARS-CoV Urbani [1]: 0.6; Binding of serum London to linear peptides of protein N of SARS-CoV Urbani [1]: 0.5; Binding of serum SARS-green to linear peptides of protein N of SARS-CoV Urbani [1]: 0.5; Binding of serum SARS-yellow to linear peptides of protein N of SARS-CoV Urbani [1]: 0.6; Control Serum Blood-Bank Looped peptides [2]: 0.5; Control serum Blood-bank linear peptides [2]: 0.6; Control serum LUMC linear peptides [2]: 0.7; Control serum LUMC looped peptides [2]: 0.5
TFPPTEPKKDKKKKT |  | 0.2 |  | 0.1 |  | 0.3 |  | 0.1 |  | 0.4 |  | 0.4 |  | 0.3 | 0.1 | 0.3 | 0.2 | 0.3 | 0.1 | 0.2 | Binding of serum 1a to linear peptides of protein N of SARS-CoV Urbani [1]: 0.2; Binding of serum 1b to linear peptides of protein N of SARS-CoV Urbani [1]: 0.1; Binding of serum 2 to linear peptides of protein N of SARS-CoV Urbani [1]: 0.9; Binding of serum 6 to linear peptides of protein N of SARS-CoV Urbani [1]: 0.3; Binding of serum 37 to linear peptides of protein N of SARS-CoV Urbani [1]: 0.8; Binding of serum 62 to linear peptides of protein N of SARS-CoV Urbani [1]: 0.8; Binding of serum London to linear peptides of protein N of SARS-CoV Urbani [1]: 0.5; Binding of serum SARS-green to linear peptides of protein N of SARS-CoV Urbani [1]: 0.3; Binding of serum SARS-yellow to linear peptides of protein N of SARS-CoV Urbani [1]: 0.9; Control Serum Blood-Bank Looped peptides [2]: 0.5; Control serum Blood-bank linear peptides [2]: 0.6; Control serum LUMC linear peptides [2]: 0.7; Control serum LUMC looped peptides [2]: 0.4
EGSRGGSQASSRSSS | 0.3 | 0.4 | 0.2 | 0.3 | 0.3 | 0.4 | 0.4 | 0.6 | 0.9 | 0.6 | 0.8 | 0.4 | 0.5 | 0.4 | 0.7 | 0.7 | 0.2 | 0.7 | 0.1 | 0.2 | Binding of serum SARS-green to linear peptide (PEPSCAN-ELISA) [1]: 0.6; Binding of serum SARS-yellow to linear peptide (PEPSCAN-ELISA) [1]: 0.6; Binding of Control Serum Blood-Bank to Looped peptides [2]: 0.7; Binding of Control serum Blood-bank to linear peptides [2]: 1.0; Binding of Control serum LUMC to linear peptides [2]: 1.0; Binding of Control serum LUMC to looped peptides [2]: 0.8
